Laboratory results: publication PMC6930633, “Synthesis and Biological Evaluation of BODIPY-PF-543” (Molecules, 2019)

Molecular target: T1, Sphingosine kinase 1 (SK1) (Homo sapiens, UniProt Q9NYA1)
T1 construct: gene SPHK1
Test: recombinant SK1 luminescent ATP-detection kinase activity assay (Echelon kit)
Type: biochemical

T1 sequence (Q9NYA1 whole entry): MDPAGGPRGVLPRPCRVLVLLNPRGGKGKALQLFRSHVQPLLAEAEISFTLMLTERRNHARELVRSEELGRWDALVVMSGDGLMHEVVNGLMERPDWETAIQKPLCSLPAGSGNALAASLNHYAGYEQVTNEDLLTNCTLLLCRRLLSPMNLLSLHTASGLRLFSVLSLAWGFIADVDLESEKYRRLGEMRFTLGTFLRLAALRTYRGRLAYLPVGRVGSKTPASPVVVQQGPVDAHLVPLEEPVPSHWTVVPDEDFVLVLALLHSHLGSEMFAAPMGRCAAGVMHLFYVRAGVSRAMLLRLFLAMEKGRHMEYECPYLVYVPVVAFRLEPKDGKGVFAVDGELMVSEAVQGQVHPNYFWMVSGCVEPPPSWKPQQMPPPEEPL

IC50: 19.9 nM
Compound: CC1=CC(C)=[N+]2C1=C(c1ccc(-c3cn(Cc4cc(C)cc(OCc5ccc(CN6CCC[C@@H]6CO)cc5)c4)nn3)cc1)c1c(C)cc(C)n1[B-]2(F)F [compound 2, (R)-(1-(4-((3-((4-(4-(5,5-Difluoro-1,3,7,9-tetramethyl-5H-4l4,5l4-dipyrrolo[1,2-c:2’,1’-f][1,3,2]diazaborinin-10-yl)phenyl)-1H-1,2,3-triazol-1-yl)methyl)-5-methylphenoxy)methyl)benzyl)pyrrolidin-2-yl)methanol]
